The subject of the experiment is irg-1. The experiment is described as follows: Pirg-1GFP translation suppression reporter in worms. The format is in vivo, C. elegans. The settings on record: 3-hour treatment, 2 mg/ml. An excerpt:
DIC microscopy was used to perform all the nucleolar imaging. Hypodermal cells of age-matched day 1 adults were imaged using 100× magnification with Olympus IX81. Freehand tool software from Fiji was used for nucleolar area quantification. FIB-1::GFP, HLH-30::GFP and N2+Pirg-1GFP worms were imaged using Olympus IX81 and Axio Imager Z1(Zeiss).

Experimental findings from patent publication US11573231B2, “Biomarker of aging” (Max-Planck-Gesellschaft zur Forderung der Wissenschaften …, priority 2017, dated 2023) are described below.

As for `C[C@@H]1C[C@@H]([C@H](O)CC2CC(=O)NC(=O)C2)C(=O)[C@@H](C)C1` [cycloheximide], the Pirg-1GFP reporter induction result was “induced”. Also, the Pirg-1GFP reporter induction result (listed as Cyclohexamide) was “strongly induced”.
